Assay results as given in ChEMBL document CHEMBL1201862, “PubChem BioAssay data set” (2004).
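Cultured in 96-well plates, cells were exposed to test compound for 48 hours across five concentrations. The concentration for 50% growth inhibition is given as GI50.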 The source made the active and inactive calls. Rule as the data show it: active = GI50 up to about 1.1 µM and inactive = higher.

Key:
Test in all cases: NCI-60 cell line screen, 48 h
[1] = test system: DMS-273
[2] = test system: KM-20L2
[3] = test system: DLD-1
[4] = test system: SNB-78
[5] = test system: LXFL 529
[6] = test system: HOP-18
[7] = test system: M19-MEL
[8] = test system: DMS-114
[9] = test system: RXF 631

Row | Structure (SMILES) | GI50 [1] | GI50 [2] | GI50 [3] | GI50 [4] | GI50 [5] | GI50 [6] | GI50 [7] | GI50 [8] | GI50 [9]
1 | CC1CCc2c(sc3ncnc(N/N=C/c4ccc(Cl)cc4)c23)C1 (stereo not drawn) | 37.4 µM (inactive) | 22.8 µM (inactive) | 33.6 µM (inactive) |  |  |  |  |  | 
2 | CN(C)C(=O)Nc1c([N+](=O)[O-])cc(C(F)(F)F)cc1[N+](=O)[O-] | 43.8 µM (inactive) | 26.5 µM (inactive) |  | 33.5 µM (inactive) | 40.9 µM (inactive) |  |  |  | 
3 | NC(=O)NC(=O)C1CCC(=O)N1S(=O)(=O)c1ccc(Cl)cc1 (stereo not drawn) |  | > 100 µM (inactive) | > 100 µM (inactive) |  | > 100 µM (inactive) | > 100 µM (inactive) | > 100 µM (inactive) | > 100 µM (inactive) | > 100 µM (inactive)
4 | CCOC(=O)/C(O)=C/c1cc(OC)cc(=O)o1 | > 100 µM (inactive) | > 100 µM (inactive) | > 100 µM (inactive) | > 100 µM (inactive) | > 100 µM (inactive) | > 100 µM (inactive) | > 100 µM (inactive) | > 100 µM (inactive) | 
5 | CN(C)CCNC(=O)c1cccc2ccc(-c3cccnc3)nc12 | 3.35 µM (inactive) |  | 4.41 µM (inactive) | 7.11 µM (inactive) |  | 13.7 µM (inactive) | 5.71 µM (inactive) | 6.52 µM (inactive) | 3.48 µM (inactive)
6 | CSc1n/c(=N\c2ccccc2)sn1-c1ccccc1 | 8.83 µM (inactive) | 13.6 µM (inactive) |  | 20.7 µM (inactive) |  |  | 5.58 µM (inactive) | 3.15 µM (inactive) | 
7 | CSc1nc2c(nc(N)n2C2OC(CO)C(O)C(O)C2O)c(=O)n1C (stereo not drawn) |  | > 100 µM (inactive) | > 100 µM (inactive) | > 100 µM (inactive) | > 100 µM (inactive) | > 100 µM (inactive) | > 100 µM (inactive) | > 100 µM (inactive) | 
8 | O=C1N2Cc3c4ccc5c3CN3C(=O)N6Cc7c(ccc(c7CN1C6(c1ccccc1)C23c1ccccc1)OCCOCCOc1cc(Br)c(Br)cc1OCCOCCO4)OCCOCCOc1cc(Br)c(Br)cc1OCCOCCO5 (stereo not drawn) | > 100 µM (inactive) | > 100 µM (inactive) | 20.2 µM (inactive) | > 100 µM (inactive) | 67.3 µM (inactive) | > 100 µM (inactive) | > 100 µM (inactive) | 41.2 µM (inactive) | > 100 µM (inactive)
9 | COc1ccc(C2NCCc3c2[nH]c2ccccc32)cc1 (stereo not drawn) |  | > 100 µM (inactive) | > 100 µM (inactive) |  | 95.3 µM (inactive) | 58.7 µM (inactive) | > 100 µM (inactive) |  | 67 µM (inactive)
10 | Cc1ccc([N+](=O)[O-])cc1NC(=O)c1cccc([N+](=O)[O-])c1O | 11.9 µM (inactive) | 25.5 µM (inactive) | 20.7 µM (inactive) | 20.8 µM (inactive) | 19.1 µM (inactive) |  | 15.5 µM (inactive) | 8.73 µM (inactive) | 
11 | CCOCC(=O)N[C@H]1CCc2cc(OC)c(OC)c(OC)c2-c2ccc(OC)c(=O)cc21 | 0.0128 µM (active) | 0.0118 µM (active) | 0.019 µM (active) | < 0.0147 µM (active) | 0.024 µM (active) |  | < 0.0202 µM (active) | 0.0148 µM (active) | 
12 | COc1cc2cc[n+](C)c(Cc3ccccc3)c2cc1OC | > 100 µM (inactive) | > 100 µM (inactive) |  | > 100 µM (inactive) | > 100 µM (inactive) | > 100 µM (inactive) | > 100 µM (inactive) | 79.6 µM (inactive) | 
13 | CC1=C(C(=O)Nc2cc(F)c(F)cc2F)C(c2ccc(N(C)C)cc2)C(C(=O)Nc2cc(F)c(F)cc2F)=C(C)N1 | 26.9 µM (inactive) | 34 µM (inactive) | 34.9 µM (inactive) | 17.7 µM (inactive) | 19.3 µM (inactive) |  | 38 µM (inactive) | 17.2 µM (inactive) | 23 µM (inactive)
14 | COC(=O)c1ccccc1NC(=O)C(=O)CC(=O)c1ccccc1NC1=CC(=O)C(=O)c2ccccc21 | 10.7 µM (inactive) | 72.9 µM (inactive) | 4.57 µM (inactive) | 7.66 µM (inactive) | 5.09 µM (inactive) | 7.59 µM (inactive) | 2.02 µM (inactive) | 1.71 µM (inactive) | 26.5 µM (inactive)
15 | CC(=O)O[C@]12CCCCCCC1C1(O)C(O)CCC[C@H]12 (stereo partly drawn) | > 100 µM (inactive) | > 100 µM (inactive) |  | > 100 µM (inactive) | > 100 µM (inactive) | > 100 µM (inactive) | > 100 µM (inactive) | > 100 µM (inactive) | 
16 | CC(=O)NC(CCCN)C(=O)NCc1ccccc1 (stereo not drawn) | > 100 µM (inactive) | > 100 µM (inactive) | > 100 µM (inactive) | > 100 µM (inactive) | > 100 µM (inactive) |  | > 100 µM (inactive) | > 100 µM (inactive) | 
17 | Cn1c(=O)c(NC(=O)C(Cl)(Cl)Cl)nc2ccccc21 | > 100 µM (inactive) | > 100 µM (inactive) | > 100 µM (inactive) | > 100 µM (inactive) | > 100 µM (inactive) |  | > 100 µM (inactive) | > 100 µM (inactive) | > 100 µM (inactive)
18 | CC1(CO)C(=O)OC12CCCCC2 (stereo not drawn) | > 100 µM (inactive) |  | > 100 µM (inactive) | > 100 µM (inactive) | > 100 µM (inactive) |  | > 100 µM (inactive) | > 100 µM (inactive) | > 100 µM (inactive)
19 | C=CCN1C(=O)CS/C1=N\NC(=O)c1c(C)nc2sccn12 | > 100 µM (inactive) | > 100 µM (inactive) | > 100 µM (inactive) |  | > 100 µM (inactive) | > 100 µM (inactive) | > 100 µM (inactive) | > 100 µM (inactive) | > 100 µM (inactive)
20 | CCNC(=O)/C=C/CCC#Cc1ccc(-c2ccc(-c3cccs3)s2)s1 | > 100 µM (inactive) | > 100 µM (inactive) | > 100 µM (inactive) | > 100 µM (inactive) | > 100 µM (inactive) | 4.82 µM (inactive) | > 100 µM (inactive) | > 100 µM (inactive) | 
21 | COc1ccc(C(=O)Nc2ccn(CCOC(=O)c3ccc(OC)cc3)c(=O)n2)cc1 | > 100 µM (inactive) | > 100 µM (inactive) | > 100 µM (inactive) | 76.2 µM (inactive) | > 100 µM (inactive) | > 100 µM (inactive) | > 100 µM (inactive) | > 100 µM (inactive) | > 100 µM (inactive)
